In ChEMBL document CHEMBL1201862, “PubChem BioAssay data set” (2004) one finds EC50, IC50 and AC50 data, which are given here for six compounds.

Data set [1] concerns the target Intestinal-type alkaline phosphatase (Homo sapiens, UniProt P09923). Kind of data set: activation of human intestinal alkaline phosphatase – biochemical, dose response (AID 488873). Format: functional.
Data set [2] concerns the target T1, Alkaline phosphatase, tissue-nonspecific isozyme (Homo sapiens, UniProt P05186).
T1 sequence (P05186 whole entry): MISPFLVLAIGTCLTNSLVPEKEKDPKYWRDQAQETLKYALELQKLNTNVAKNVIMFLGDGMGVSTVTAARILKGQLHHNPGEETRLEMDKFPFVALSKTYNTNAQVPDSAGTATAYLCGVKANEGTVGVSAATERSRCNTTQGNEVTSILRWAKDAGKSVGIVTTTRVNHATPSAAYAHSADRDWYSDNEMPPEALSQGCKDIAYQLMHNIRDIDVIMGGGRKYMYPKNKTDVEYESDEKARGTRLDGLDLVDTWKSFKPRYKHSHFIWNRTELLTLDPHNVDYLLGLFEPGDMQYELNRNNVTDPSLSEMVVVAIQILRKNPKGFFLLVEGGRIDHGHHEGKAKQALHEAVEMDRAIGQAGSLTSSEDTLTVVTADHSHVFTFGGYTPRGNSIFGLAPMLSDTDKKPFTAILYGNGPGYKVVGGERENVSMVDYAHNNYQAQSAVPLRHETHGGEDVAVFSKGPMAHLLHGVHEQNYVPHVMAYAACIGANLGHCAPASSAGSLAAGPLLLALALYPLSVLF
Kind of data set: activation of tissue-nonspecific alkaline phosphatase – biochemical, TNAP isozyme, mouse IAP uHTS hits, selectivity assay for mouse IAP activator project, dose response (AID 488880). Format: functional.

In another data set the target is Large T antigen (Simian virus 40, UniProt P03070). It counts as functional, Betapolyomavirus macacae.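 Note: Confirmatory-stage PubChem screen for compounds that inhibit SV40 T antigen.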
Chain of Large T antigen (P03070 whole entry): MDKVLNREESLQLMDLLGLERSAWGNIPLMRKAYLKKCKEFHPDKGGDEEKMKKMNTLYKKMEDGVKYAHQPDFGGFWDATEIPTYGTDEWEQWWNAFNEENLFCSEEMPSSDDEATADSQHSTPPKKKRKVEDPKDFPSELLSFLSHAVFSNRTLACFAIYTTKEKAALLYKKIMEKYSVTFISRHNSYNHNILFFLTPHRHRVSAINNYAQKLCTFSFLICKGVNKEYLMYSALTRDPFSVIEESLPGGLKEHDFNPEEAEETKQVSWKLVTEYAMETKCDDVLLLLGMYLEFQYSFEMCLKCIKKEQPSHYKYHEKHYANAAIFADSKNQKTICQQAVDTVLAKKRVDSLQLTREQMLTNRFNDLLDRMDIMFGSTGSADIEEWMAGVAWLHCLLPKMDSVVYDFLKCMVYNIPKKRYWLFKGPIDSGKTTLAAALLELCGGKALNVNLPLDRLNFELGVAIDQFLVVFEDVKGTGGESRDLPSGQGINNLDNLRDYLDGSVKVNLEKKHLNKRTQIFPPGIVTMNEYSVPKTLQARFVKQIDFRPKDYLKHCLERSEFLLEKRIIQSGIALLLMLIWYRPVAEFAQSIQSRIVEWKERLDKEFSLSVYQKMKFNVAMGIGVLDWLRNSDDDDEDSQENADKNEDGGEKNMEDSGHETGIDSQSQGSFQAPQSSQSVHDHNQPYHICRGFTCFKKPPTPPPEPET
In data set [3] the target is T2, Intestinal-type alkaline phosphatase (Mus musculus, UniProt P24822). Kind of data set: mouse intestinal alkaline phosphatase activators, dose response, biochemical, luminescence, uHTS hits (AID 488783). Format: functional.
T2 sequence (P24822 whole entry): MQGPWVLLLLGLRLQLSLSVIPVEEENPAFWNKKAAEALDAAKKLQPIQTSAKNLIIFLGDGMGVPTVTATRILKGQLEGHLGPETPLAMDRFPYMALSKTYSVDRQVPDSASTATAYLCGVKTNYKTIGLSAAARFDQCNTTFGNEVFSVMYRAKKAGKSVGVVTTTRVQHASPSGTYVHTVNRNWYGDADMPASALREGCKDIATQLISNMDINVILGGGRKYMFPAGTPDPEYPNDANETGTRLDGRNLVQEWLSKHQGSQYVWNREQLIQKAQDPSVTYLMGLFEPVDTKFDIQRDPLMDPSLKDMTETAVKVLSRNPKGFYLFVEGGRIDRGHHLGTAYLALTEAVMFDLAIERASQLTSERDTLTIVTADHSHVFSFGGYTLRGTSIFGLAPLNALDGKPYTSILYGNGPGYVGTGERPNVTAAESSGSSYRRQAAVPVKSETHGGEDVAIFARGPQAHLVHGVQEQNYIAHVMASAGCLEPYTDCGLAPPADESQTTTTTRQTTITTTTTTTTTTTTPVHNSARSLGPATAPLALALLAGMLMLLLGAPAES
The target in data set [4] is T3, Histone-lysine N-methyltransferase NSD2 (Homo sapiens, UniProt O96028).
T3 sequence (O96028 whole entry): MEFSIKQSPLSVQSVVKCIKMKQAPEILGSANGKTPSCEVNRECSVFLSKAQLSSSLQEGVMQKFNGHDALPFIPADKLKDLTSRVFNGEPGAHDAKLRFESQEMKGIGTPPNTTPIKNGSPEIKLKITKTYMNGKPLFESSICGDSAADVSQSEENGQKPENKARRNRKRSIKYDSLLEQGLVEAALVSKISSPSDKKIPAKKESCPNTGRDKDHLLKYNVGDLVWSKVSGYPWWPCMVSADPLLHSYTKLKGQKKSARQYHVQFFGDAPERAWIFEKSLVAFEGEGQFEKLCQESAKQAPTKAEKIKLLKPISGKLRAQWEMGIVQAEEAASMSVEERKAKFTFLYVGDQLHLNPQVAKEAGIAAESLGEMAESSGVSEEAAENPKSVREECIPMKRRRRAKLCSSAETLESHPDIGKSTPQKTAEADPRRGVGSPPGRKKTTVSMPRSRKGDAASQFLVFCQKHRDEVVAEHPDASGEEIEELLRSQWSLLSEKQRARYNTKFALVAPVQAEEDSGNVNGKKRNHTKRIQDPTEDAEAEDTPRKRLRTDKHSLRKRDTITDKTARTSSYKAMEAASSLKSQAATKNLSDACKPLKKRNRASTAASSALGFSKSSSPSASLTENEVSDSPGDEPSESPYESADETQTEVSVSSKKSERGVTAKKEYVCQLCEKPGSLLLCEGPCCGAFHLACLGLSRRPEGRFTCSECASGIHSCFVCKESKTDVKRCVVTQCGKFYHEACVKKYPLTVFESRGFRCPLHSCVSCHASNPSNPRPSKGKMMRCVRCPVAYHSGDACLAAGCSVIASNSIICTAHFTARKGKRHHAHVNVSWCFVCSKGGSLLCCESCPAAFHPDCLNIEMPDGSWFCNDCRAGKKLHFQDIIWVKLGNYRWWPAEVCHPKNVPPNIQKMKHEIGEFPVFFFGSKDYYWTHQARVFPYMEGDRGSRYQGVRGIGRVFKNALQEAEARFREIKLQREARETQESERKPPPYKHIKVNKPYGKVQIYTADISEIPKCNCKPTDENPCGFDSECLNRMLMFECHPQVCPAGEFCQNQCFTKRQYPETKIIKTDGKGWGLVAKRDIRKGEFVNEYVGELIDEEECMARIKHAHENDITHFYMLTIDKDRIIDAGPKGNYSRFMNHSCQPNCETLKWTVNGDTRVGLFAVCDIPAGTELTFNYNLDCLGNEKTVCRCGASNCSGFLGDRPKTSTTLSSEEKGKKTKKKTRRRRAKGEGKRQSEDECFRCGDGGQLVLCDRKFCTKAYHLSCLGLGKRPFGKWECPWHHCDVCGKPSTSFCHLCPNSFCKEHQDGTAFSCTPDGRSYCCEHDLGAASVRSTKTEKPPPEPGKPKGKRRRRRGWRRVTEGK
It counts as biochemical.

For data set [5], the target named is T4, Tyrosine-protein phosphatase non-receptor type 22 (Homo sapiens, UniProt Q9Y2R2).
T4 sequence (Q9Y2R2 whole entry): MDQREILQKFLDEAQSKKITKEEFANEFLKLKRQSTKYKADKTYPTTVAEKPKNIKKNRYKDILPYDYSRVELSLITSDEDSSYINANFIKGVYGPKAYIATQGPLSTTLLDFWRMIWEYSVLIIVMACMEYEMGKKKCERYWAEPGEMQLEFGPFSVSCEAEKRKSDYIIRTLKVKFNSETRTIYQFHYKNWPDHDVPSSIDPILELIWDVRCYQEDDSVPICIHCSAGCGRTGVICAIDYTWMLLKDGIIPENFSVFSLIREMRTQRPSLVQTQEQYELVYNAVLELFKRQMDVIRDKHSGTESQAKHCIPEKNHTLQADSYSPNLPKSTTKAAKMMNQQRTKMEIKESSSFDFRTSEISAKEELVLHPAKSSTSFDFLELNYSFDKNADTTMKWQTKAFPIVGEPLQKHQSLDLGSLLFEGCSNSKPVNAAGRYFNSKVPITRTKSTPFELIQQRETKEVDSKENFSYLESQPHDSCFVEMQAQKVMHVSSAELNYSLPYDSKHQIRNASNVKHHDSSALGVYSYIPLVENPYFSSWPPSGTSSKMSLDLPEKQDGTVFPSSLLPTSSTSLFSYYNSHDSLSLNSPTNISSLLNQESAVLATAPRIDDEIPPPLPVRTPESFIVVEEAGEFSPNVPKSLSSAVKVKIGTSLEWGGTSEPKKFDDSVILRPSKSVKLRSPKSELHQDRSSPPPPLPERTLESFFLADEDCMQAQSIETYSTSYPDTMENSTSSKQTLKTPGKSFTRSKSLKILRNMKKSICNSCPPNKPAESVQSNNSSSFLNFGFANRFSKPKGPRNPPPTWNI
Format: functional.

For data set [6], the target named is T5, Tyrosine-protein phosphatase non-receptor type 7 (Homo sapiens, UniProt P35236).
T5 sequence (P35236 whole entry): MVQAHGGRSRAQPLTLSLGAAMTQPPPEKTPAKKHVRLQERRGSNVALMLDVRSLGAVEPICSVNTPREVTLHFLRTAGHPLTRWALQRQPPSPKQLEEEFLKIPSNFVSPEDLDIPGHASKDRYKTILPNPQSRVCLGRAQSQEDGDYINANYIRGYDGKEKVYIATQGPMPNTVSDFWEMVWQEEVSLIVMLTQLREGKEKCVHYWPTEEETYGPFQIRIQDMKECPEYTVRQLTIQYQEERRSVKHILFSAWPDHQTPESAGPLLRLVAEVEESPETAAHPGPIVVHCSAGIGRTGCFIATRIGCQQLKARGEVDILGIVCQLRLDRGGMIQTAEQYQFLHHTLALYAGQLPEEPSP
Format: functional.

The target in data set [7] is T4, Tyrosine-protein phosphatase non-receptor type 22. It counts as functional. This is another data set of the same source.
Data set [8] has as its target T2, Intestinal-type alkaline phosphatase. Kind of data set: PubChem AID 488785. Format: functional.
Data set [9] has as its target T1, Alkaline phosphatase, tissue-nonspecific isozyme. Kind of data set: TNAP enzyme inhibition by screening hits, dose response, selectivity assay for mouse IAP inhibitor project, biochemical, human TNAP, uHTS hits (AID 488906). Format: functional.
A further data set addresses Cytochrome P450 2D6 (Homo sapiens, UniProt P10635).
The next data set has as its target Cytochrome P450 2C19 (Homo sapiens, UniProt P33261). Kind of data set: Cytochrome panel assay with activity outcomes. Panel member name: p450-cyp2c19 Compounds with AC50 equal or less than 10 uM are considered active. Format: functional.
Another data set concerns the target T6, Caspase-6 (Homo sapiens, UniProt P55212).
T6 sequence (P55212 whole entry): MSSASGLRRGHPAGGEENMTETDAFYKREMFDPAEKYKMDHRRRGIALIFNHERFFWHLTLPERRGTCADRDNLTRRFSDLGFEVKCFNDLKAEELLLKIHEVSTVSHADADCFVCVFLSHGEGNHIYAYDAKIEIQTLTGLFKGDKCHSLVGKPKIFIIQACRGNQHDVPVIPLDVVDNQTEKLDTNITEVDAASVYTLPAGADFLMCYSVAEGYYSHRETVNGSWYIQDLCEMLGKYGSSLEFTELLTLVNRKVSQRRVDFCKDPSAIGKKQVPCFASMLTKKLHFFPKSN
Kind of data set: inhibition of CASP6 peptide cleavage – biochemical, VEID-R110 fluorescence, cherry-pick, dose response (AID 720632).

Data set [10] can be described thus: fluconazole-exposed Candida albicans growth modulators – fluorescence, retest, confirmation (AID 2467). It counts as functional, cell-based.
A short description of data set [11]: NIH-3T3 fibroblast cytotoxicity, dose response, cytotoxicity control, cell-based, fluorescence, Alamar Blue, secondary assay (AID 2327).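 Note: NIH-3T3 mouse fibroblasts cultured with fluconazole at 8 µg/mL.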 Format: functional. In general terms: Alamar Blue is a resazurin reagent that responds to reducing activity.

The structures appear in SMILES notation. Activity calls are given as the source filed them.

Chain of Intestinal-type alkaline phosphatase (Homo sapiens, UniProt P09923) (P09923 whole entry): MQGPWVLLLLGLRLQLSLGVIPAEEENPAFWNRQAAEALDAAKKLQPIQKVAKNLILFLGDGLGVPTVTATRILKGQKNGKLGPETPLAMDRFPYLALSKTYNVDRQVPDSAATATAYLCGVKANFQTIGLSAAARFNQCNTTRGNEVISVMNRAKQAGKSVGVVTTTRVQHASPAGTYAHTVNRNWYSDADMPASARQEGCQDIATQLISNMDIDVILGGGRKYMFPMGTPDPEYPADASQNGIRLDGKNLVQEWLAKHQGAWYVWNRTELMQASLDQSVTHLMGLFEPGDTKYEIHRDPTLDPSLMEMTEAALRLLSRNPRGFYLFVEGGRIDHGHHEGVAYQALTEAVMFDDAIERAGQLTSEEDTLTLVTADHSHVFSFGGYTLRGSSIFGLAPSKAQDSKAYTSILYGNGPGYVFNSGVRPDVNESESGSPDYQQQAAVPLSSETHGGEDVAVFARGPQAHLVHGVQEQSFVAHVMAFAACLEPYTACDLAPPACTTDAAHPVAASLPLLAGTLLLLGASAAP
Chain of Cytochrome P450 2D6 (P10635 whole entry): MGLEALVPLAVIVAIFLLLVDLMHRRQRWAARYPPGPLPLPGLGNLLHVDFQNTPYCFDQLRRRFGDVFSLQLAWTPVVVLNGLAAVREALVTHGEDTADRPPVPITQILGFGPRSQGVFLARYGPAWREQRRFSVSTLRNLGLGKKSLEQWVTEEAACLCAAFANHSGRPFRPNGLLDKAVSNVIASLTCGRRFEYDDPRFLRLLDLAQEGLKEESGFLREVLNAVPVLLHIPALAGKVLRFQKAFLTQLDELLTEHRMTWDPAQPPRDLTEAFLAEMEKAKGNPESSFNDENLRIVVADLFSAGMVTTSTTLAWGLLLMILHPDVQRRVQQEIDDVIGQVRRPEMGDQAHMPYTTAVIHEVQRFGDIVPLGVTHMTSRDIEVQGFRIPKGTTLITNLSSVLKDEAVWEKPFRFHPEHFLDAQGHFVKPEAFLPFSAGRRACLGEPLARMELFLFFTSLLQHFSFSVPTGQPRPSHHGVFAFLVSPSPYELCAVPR
Chain of Cytochrome P450 2C19 (P33261 whole entry): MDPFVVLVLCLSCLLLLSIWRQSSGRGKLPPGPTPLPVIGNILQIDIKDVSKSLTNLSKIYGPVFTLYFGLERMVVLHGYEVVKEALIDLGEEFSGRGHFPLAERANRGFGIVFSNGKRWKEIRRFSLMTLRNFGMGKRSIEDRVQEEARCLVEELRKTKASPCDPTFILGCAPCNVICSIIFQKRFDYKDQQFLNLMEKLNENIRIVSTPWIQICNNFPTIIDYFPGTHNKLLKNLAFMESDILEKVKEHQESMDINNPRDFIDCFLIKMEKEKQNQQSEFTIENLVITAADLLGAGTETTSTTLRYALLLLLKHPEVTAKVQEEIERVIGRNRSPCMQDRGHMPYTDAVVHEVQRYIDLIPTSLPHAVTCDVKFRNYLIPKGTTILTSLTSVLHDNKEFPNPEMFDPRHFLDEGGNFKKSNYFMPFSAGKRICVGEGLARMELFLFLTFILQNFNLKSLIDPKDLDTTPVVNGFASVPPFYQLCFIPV

A word on the EC50: it is the concentration needed to bring the measured effect to its halfway point. As a reminder, the IC50 is the point on the concentration scale where inhibition reaches its midpoint. A word on the AC50: it is the concentration at which the activity in the assay is half-maximal. Turning to `O=C(CSc1nc2ccccc2o1)N/N=C/c1ccc(O)c(O)c1`, the EC50 in [1] is 63 µM (active); in [2] it was 61.7 µM (active); in data set [3], 69.9 µM (active). For the same compound, the IC50 at Large T antigen is 6.69 µM (active). Further, in data set [4], the AC50 was 0.742 µM (active).

On to `CC(=O)Nc1ccc(SCC(=O)Nc2ccc(Cl)cn2)cc1`, for which the IC50 in [5], in data set [6] and in data set [7] was > 79.4 µM (inactive) in each case.

For the compound `Cc1ccc(OCC(=O)N/N=C\c2ccco2)c(C)c1`, the IC50 in [5], in data set [6] and in [7] was > 79.4 µM (inactive) each time.

`COc1cccc(C(C)NC(=O)Nc2cccc(C(F)(F)F)c2)c1` (stereo not drawn): the results for the IC50 in data set [8] and in data set [9] were 3.21 µM (active) and > 100 µM (inactive), respectively. Besides, in data set [1], the EC50 was > 100 µM (inactive).

Turning to `O=C(O)c1cc(/N=N\c2ccc([As](=O)(O)O)cc2)ccc1O`, the AC50 result on Cytochrome P450 2D6 and at Cytochrome P450 2C19 was “inconclusive” in each case.

Regarding `NNC(=O)c1cc(O)c(O)c(O)c1`, the AC50 on Caspase-6 is 2.43 µM (active); in data set [4] it was 5.41 µM (active). In addition, the EC50 in data set [1] is 82.6 µM (active); in data set [10], > 38 µM (not active); in data set [11] it was 41.7 µM (active); in data set [2] it was 69.3 µM (active); in data set [3], 8.04 µM (active).
